From US12157730B2, “Heteroaryl derivative, method for producing same, and pharmaceutical composition comprising same as effective component” (VORONOI INC., priority 2019, dated 2024)

Each compound was assayed against T1, Ba/F3 cell EGFR Exon20 ins NPH (Homo sapiens, UniProt P00533, INS773NPH) (assay: Ba/F3 cell proliferation suppression, EGFR Exon20 ins NPH). Conditions: GI50 class; Ba/F3 cell line with NPH inserted at Exon20 of EGFR; 72 hours.
T1 construct: expressed in transfected cells; host or cells: Ba/F3
Format: cell-based
Summary of the method: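 Growth suppression determined as GI50 following 72 h exposure across 12 concentrations up to 50 um, with viability by luminescent ATP assay (CellTiter-Glo).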

Compound	Ba/F3 (NPH) Activity
C=CC(=O)Nc1cc(Nc2cc(N3OCC[C@@H]3c3ccc(Cl)cc3)ncn2)c(OC)cc1N1CC[C@@H](N2CCOCC2)C1 [compound 733, N-(5-((6-((R)-3-(4-chlorophenyl)isoxazolidine-2-yl)pyrimidine-4-yl)amino)-4-methoxy-2-((R)-3-morpholinopyrolidine-1-yl)phenyl)acrylamide]	A (GI50 < 50 nM)
C=CC(=O)Nc1cc(Nc2cc(N3OCC[C@@H]3c3cc(F)cc(Cl)c3)ncn2)c(OC)cc1N1CCC(N2CCO[C@@H](C)C2)CC1 [compound 595, N-(5-((6-((R)-3-(3-chloro-5-fluorophenyl)isoxazolidine-2-yl)pyrimidine-4-yl)amino)-4-methoxy-2-(4-((S)-2-methylmorpholino)piperidine-1-yl)phenyl) acrylamide]	A (GI50 < 50 nM)
C=CC(=O)Nc1cc(Nc2cc(N3OCC[C@H]3c3c(F)ccc(F)c3Cl)ncn2)c(OC)cc1N1CCC(N2CCN(C3CC3)CC2)CC1 [compound 936, N-(5-((6-((S)-3-(2-chloro-3,6-difluorophenyl)isoxazolidine-2-yl)pyrimidine-4-yl)amino)-2-(4-(4-cyclopropylpiperazine-1-yl)piperidine-1-yl)-4-methoxyphenyl) acrylamide]	B (50 nM ≤ GI50 < 500 nM)
C=CC(=O)Nc1cc(Nc2cc(N3OCC[C@@H]3c3cccc4ccccc34)ncn2)c(OC)cc1N1CC[C@@H](N(C)C)C1 [compound 443, N-(2-((R)-3-(dimethylamino)pyrolidine-1-yl)-4-methoxy-5-((6-((R)-3-(naphthalene-1-yl)isoxazolidine-2-yl)pyrimidine-4-yl)amino)phenyl) acrylamide]	A (GI50 < 50 nM)
C=CC(=O)Nc1cc(Nc2cc(N3OCC[C@@H]3c3cccc(F)c3F)ncn2)c(OC)cc1N1C[C@H]2CCN(C)[C@H]2C1 [compound 875, N-(5-((6-((R)-3-(2,3-difluorophenyl)isoxazolidine-2-yl)pyrimidine-4-yl)amino)-4-methoxy-2-((3aR,6aR)-1-methylhexahydropyrrolo [3,4-b]pyrrole-5(1H)-yl)phenyl) acrylamide]	A (GI50 < 50 nM)
C=CC(=O)Nc1cc(Nc2cc(N3OCC[C@@H]3c3ccccc3)ncn2)c(OC)cc1N1CCC(N(C)CCN(C)C)CC1 [compound 735, N-(2-(4-((2-(dimethylamino)ethyl) (methyl)amino)piperidine-1-yl)-4-methoxy-5-((6-((R)-3-phenylisoxazolidine-2-yl)pyrimidine-4-yl)amino)phenyl) acrylamide]	A (GI50 < 50 nM)
C=CC(=O)Nc1cc(Nc2cc(N3OCC[C@@H]3c3ccccc3)ncn2)c(OC)cc1N1CCC(N2C[C@@H](C)O[C@@H](C)C2)CC1 [Example 285, N-(2-(4-((2S,6R)-2,6-dimethylmorpholino)piperidine-1-yl)-4-methoxy-5-((6-((R)-3-phenylisoxazolidine-2-yl)pyrimidine-4-yl)amino)phenyl) acrylamide]	A (GI50 < 50 nM)
C=CC(=O)Nc1cc(Nc2cc(N3OCC[C@@H]3c3ccc4ccccc4c3)ncn2)c(OC)cc1N1C[C@@H](C)O[C@@H](C)C1 [compound 664, N-(2-((2S,6R)-2,6-dimethylmorpholino)-4-methoxy-5-((6-((R)-3-(naphthalene-2-yl)isoxazolidine-2-yl)pyrimidine-4-yl)amino)phenyl)acrylamide]	C (500 nM ≤ GI50 < 5000 nM)
C=CC(=O)Nc1cc(Nc2cc(N3OCC[C@@H]3c3cccc(OC)c3)ncn2)c(OC)cc1N1CC[C@@H](N(C)C)C1 [compound 776, N-(2-((R)-3-(dimethylamino)pyrolidine-1-yl)-4-methoxy-5-((6-((R)-3-(3-methoxyphenyl)isoxazolidine-2-yl)pyrimidine-4-yl)amino)phenyl)acrylamide]	A (GI50 < 50 nM)
C=CC(=O)Nc1cc(Nc2cc(N3OCC[C@@H]3c3cc(F)ccc3F)ncn2)c(OC)cc1N1C[C@@H]2CCN(C)[C@@H]2C1 [compound 893, N-(5-((6-((R)-3-(2,5-difluorophenyl)isoxazolidine-2-yl)pyrimidine-4-yl)amino)-4-methoxy-2-((3aS,6aS)-1-methylhexahydropyrrolo [3,4-b]pyrrole-5(1H)-yl)phenyl) acrylamide]	A (GI50 < 50 nM)
C=CC(=O)Nc1cc(Nc2cc(N3OCC[C@@H]3c3cccc(F)c3Cl)ncn2)c(OC)cc1N1CCC(N2CCN(C3CC3)CC2)CC1 [Example 164, N-(5-((6-((R)-3-(2-chloro-3-fluorophenyl)isoxazolidine-2-yl)pyrimidine-4-yl)amino)-2-(4-(4-cyclopropylpiperazine-1-yl)piperidine-1-yl)-4-methoxyphenyl) acrylamide]	A (GI50 < 50 nM)
C=CC(=O)Nc1cc(Nc2cc(N3OCC[C@@H]3c3ccc(C)nc3)ncn2)c(OC)cc1N1CCN(C2CCCC2)CC1 [Example 225, N-(2-(4-cyclopentylpiperazine-1-yl)-4-methoxy-5-((6-((R)-3-(6-methylpyridine-3-yl)isoxazolidine-2-yl)pyrimidine-4-yl)amino)phenyl)acrylamide]	B (50 nM ≤ GI50 < 500 nM)
C=CC(=O)Nc1cc(Nc2cc(N3OCC[C@@H]3c3cc(F)cc(Cl)c3)ncn2)c(OC)cc1N(C)CCN(C)C [compound 538, N-(5-((6-((R)-3-(3-chloro-5-fluorophenyl)isoxazolidine-2-yl)pyrimidine-4-yl)amino)-2-((2-(dimethylamino)ethyl)(methyl)amino)-4-methoxyphenyl)acrylamide]	A (GI50 < 50 nM)
C=CC(=O)Nc1cc(Nc2cc(N3OCC[C@@H]3c3cccc(OC)c3)ncn2)c(OC)cc1N1CC[C@@H](N2CCOCC2)C1 [compound 777, N-(4-methoxy-5-((6-((R)-3-(3-methoxyphenyl)isoxazolidine-2-yl)pyrimidine-4-yl)amino)-2-((R)-3-morpholinopyrolidine-1-yl)phenyl)acrylamide]	B (50 nM ≤ GI50 < 500 nM)

Next, values leading:

Ba/F3 (NPH) Activity	Compound
A (GI50 < 50 nM)	C=CC(=O)Nc1cc(Nc2cc(N3OCC[C@@H]3c3cccc(Cl)c3C)ncn2)c(OC)cc1N1CCC(N2C[C@@H]3C[C@H]2CO3)CC1 [compound 531, N-(2-(4-((1S,4S)-2-oxa-5-azabicyclo[2.2.1]heptane-5-yl)piperidine-1-yl)-5-((6-((R)-3-(3-chloro-2-methylphenyl)isoxazolidine-2-yl)pyrimidine-4-yl)amino)-4-methoxyphenyl) acrylamide]
A (GI50 < 50 nM)	C=CCN1CCN(C2CCN(c3cc(OC)c(Nc4cc(N5OCC[C@@H]5c5cccc(Cl)c5F)ncn4)cc3NC(=O)C=C)CC2)CC1 [Example 90, N-(2-(4-(4-allylpiperazine-1-yl)piperidine-1-yl)-5-((6-(R-3-(3-chloro-2-fluorophenyl)isoxazolidine-2-yl)pyrimidine-4-yl)amino)-4-methoxyphenyl) acrylamide]
A (GI50 < 50 nM)	C=CC(=O)Nc1cc(Nc2cc(N3OCC[C@@H]3c3cccc(C)c3F)ncn2)c(OC)cc1N1CCC(N2CCN(CC)CC2)CC1 [compound 318, N-(2-(4-(4-ethylpiperazine-1-yl)piperidine-1-yl)-5-((6-((R)-3-(2-fluoro-3-methylphenyl)isoxazolidine-2-yl)pyrimidine-4-yl)amino)-4-methoxyphenyl) acrylamide]
A (GI50 < 50 nM)	C=CC(=O)Nc1cc(Nc2cc(N3OCC[C@@H]3c3ccc(C)nc3)ncn2)c(OC)cc1N1CCC(N2C[C@@H]3C[C@H]2CO3)CC1 [Example 228, N-(2-(4-((1S,4S)-2-oxa-5-azabicyclo[2.2.1]heptane-5-yl)piperidine-1-yl)-4-methoxy-5-((6-((R)-3-(6-methylpyridine-3-yl)isoxazolidine-2-yl)pyrimidine-4-yl)amino)phenyl)acrylamide]
A (GI50 < 50 nM)	C=CC(=O)Nc1cc(Nc2cc(N3OCC[C@@H]3c3cccc(F)c3F)ncn2)c(OC)cc1N1CCC(N2CC[C@H](N(C)C)C2)CC1 [compound 340, N-(5-((6-((R)-3-(2,3-difluorophenyl)isoxazolidine-2-yl)pyrimidine-4-yl)amino)-2-(4-((S)-3-(dimethylamino)pyrolidine-1-yl)piperidine-1-yl)-4-methoxyphenyl) acrylamide]
A (GI50 < 50 nM)	C=CC(=O)Nc1cc(Nc2cc(N3OCC[C@@H]3c3cccc(C)c3F)ncn2)c(OC)cc1N1CCC(N2CC[C@H](N(C)C)C2)CC1 [compound 910, N-(2-(4-((S)-3-(dimethylamino)pyrolidine-1-yl)piperidine-1-yl)-5-((6-((R)-3-(2-fluoro-3-methylphenyl)isoxazolidine-2-yl)pyrimidine-4-yl)amino)-4-methoxyphenyl) acrylamide]
A (GI50 < 50 nM)	C=CC(=O)Nc1cc(Nc2cc(N3OCC[C@@H]3c3cccc(C(F)(F)F)c3)ncn2)c(OC)cc1N1CCC(N2C[C@@H]3C[C@H]2CO3)CC1 [compound 944, N-(2-(4-((1S,4S)-2-oxa-5-azabicyclo [2.2.1]heptane-5-yl)piperidine-1-yl)-4-methoxy-5-((6-((R)-3-(3-(trifluoromethyl)phenyl)isoxazolidine-2-yl)pyrimidine-4-yl)amino)phenyl) acrylamide]
A (GI50 < 50 nM)	C=CC(=O)Nc1cc(Nc2cc(N3OCC[C@@H]3c3ccc(Cl)cc3F)ncn2)c(OC)cc1N1CCC(N2C[C@@H](C)O[C@@H](C)C2)CC1 [compound 374, N-(5-((6-((R)-3-(4-chloro-2-fluorophenyl)isoxazolidine-2-yl)pyrimidine-4-yl)amino)-2-(4-((2S,6R)-2,6-dimethylmorpholino)piperidine-1-yl)-4-methoxyphenyl) acrylamide]
A (GI50 < 50 nM)	C=CC(=O)Nc1cc(Nc2cc(N3OCC[C@@H]3c3cccc(Cl)c3C)ncn2)c(OC)cc1N1CCC(N2CCN(CC)CC2)CC1 [compound 487, N-(5-((6-((R)-3-(3-chloro-2-methylphenyl)isoxazolidine-2-yl)pyrimidine-4-yl)amino)-2-(4-(4-ethylpiperazine-1-yl)piperidine-1-yl)-4-methoxyphenyl) acrylamide]
